# Measurements as given in paper PMC9319270, “Combination of Six Individual Derivatives of the Pom-1 Antibiofilm Peptide Doubles Their Efficacy against Invasive and Multi-Resistant Clinical Isolates of the Pathogenic Yeast Candida albicans” (Pharmaceutics, 2022).
# Read-outs that look alike come from different tables or passages of the source.
# Columns and labels:
# [1] = test system: invasive C. albicans clinical isolates; type: cell-based, Candida albicans; details: 20 biofilm-forming isolates
# Protocol: The antifungal effect of Pom-1A to Pom-1F on Candida spp. biofilm formation can be determined following the Clinical and Laboratory Standard Institute guidelines (M27-A3). For this, 2.5 × 10^3 yeast cells were incubated in 200 µL of RPMI-1640 medium supplemented with L-glutamine, fluconazole, amphotericin B, and Pom-1A to Pom-1F. Incubation was performed on flat-bottomed polystyrene microplates with 96 wells (Sarstedt AG & Co. KG, Nümbrecht, Germany) for 24 h at 37 °C without shaking. The subsequent treatment with crystal violet was originally developed by George O’Toole for bacteria and adapted to Candida biofilms. For this purpose, the planktonic phase was removed, and the wells were washed twice with 200 µL of demineralized water. The remaining biofilm cells were treated with 200 µL of 0.1% (w/v) crystal violet solution for 15 min. After removing the solution, they were washed again twice with 200 µL demineralized water, and the microtiter plates were dried for at least 24 h at 25 °C. The stain was dissolved with 200 µL of 30% acetic acid and transferred to a new plate after 15 min. The absorbance at 560 nm was measured using a Tecan Infinite F200 microplate reader (Tecan Group Ltd., Männedorf, Switzerland). The resulting data were evaluated against the untreated controls so that the efficacy of the agents could be determined.
# [2] = test system: human dermal fibroblasts (HDFs); type: cell-based
# Protocol: (§1) For the experiments, adenocarcinomic human alveolar basal epithelial cells A549 [69] and human dermal fibroblasts (HDFs) were used. Cultivation was performed in DMEM with FBS (10% (w/v), 15% (w/v)), MEM NEAAs (1% (w/v)), and penicillin–streptomycin (100 U*mL^−1, 1% (w/v)) at 37 °C in an incubator containing 5% CO2. A resazurin assay was used to detect the viability of the cells. Therefore, 2 × 10^4 cells per well of a 96-well plate were incubated in 200 µL DMEM with additives at 37 °C and 5% CO2. The medium was removed, and 100 µL of the medium and 100 µL of a peptide solution (2.5 µg/mL, 25 µg/mL) were added. After incubation for 24 h at 37 °C and 5% CO2, 20 µL of a resazurin solution (0.15 mg/mL) were added into each well, and the cells were incubated again for 24 h at 37 °C and 5% CO2. Fluorescence measurement (excitation wavelength—535 nm, emission wavelength—595 nm) of the resulting resorufin was then performed using a Tecan Infinite F200 microplate reader (Tecan Group Ltd., Männedorf, Switzerland).
# [3] = test system: adenocarcinomic human alveolar basal epithelial cells A549; type: cell-based
# Protocol: as §1
compound,measurement,setting,value
C[C@@H]1[C@H](O)[C@@H](C)/C=C/C=C/C=C/C=C/C=C/C=C/C=C/[C@H](O[C@@H]2O[C@H](C)[C@@H](O)[C@H](N)[C@@H]2O)C[C@@H]2O[C@](O)(C[C@@H](O)C[C@@H](O)[C@H](O)CC[C@@H](O)C[C@@H](O)CC(=O)O[C@H]1C)C[C@H](O)[C@H]2C(=O)O [amphotericin B],"number of resistant isolates (biofilm detectable, inhibition lower than 100%)",[1]; amphotericin B 2 µg/mL (w/v),six
"OC(Cn1cncn1)(Cn1cncn1)c1ccc(F)cc1F [fluconazole, Fluconazole]","number of resistant isolates (biofilm detectable, inhibition lower than 100%)",[1]; fluconazole 8 µg/mL (w/v),four
Triton X-100,"cell viability, HDF",[2],zero
same,"cell viability, A549",[3],zero
